In patent US5498522A, “Methods for the use of spermidine/spermine N^1 -acetyltransferase as a prognostic indicator and/or a tumor response marker” (priority 1993, dated 1996):
“Also recorded” adds a separate entry of the source.

Columns and labels:
[1] = system: spermidine/spermine N^1 -acetyltransferase (SSAT); assay: SSAT induction in cultured human tumor cell lines in-vitro; format: cell-based; conditions: for SSAT induction (FIG. 5, words) / SSAT: 48 hours
Procedure: To illustrate this embodiment, three polyamine analogs comprising bis-ethyl spermine analogs were used to treat MALME-3 human melanoma cells cultured in-vitro, and MALME-3 cells implanted as human xenografts in the athymic nude mouse model (Bernacki et al., 1992, supra). For in-vitro treatment, MALME-3 cells were maintained as a monolayer culture growing in RPMI 1640 containing 2% N-2-hydroxy-piperazine-N^1 -ethanesulfonic acid/3-N-morpholinopropanesulfonic acid pH 7.4 as a buffer, 1 mM aminoguanidine as an inhibitor of serum oxidase, and 10% of a semidefined serum substitute. Cells were seeded at 2×10^5 cells/T-75 flask and incubated 24 hours before treatment with analogues. Following treatment with 10 μM of the respective bis-ethyl spermine analog, control and treated cultured cells were trypsinized, washed, and suspended for enzyme assays and cell number determinations.
In accordance with the above methods for assaying the induction of SSAT levels in tumor cell lines treated in-vitro and xenografts treated in-vivo, the induction pattern also correlates fairly well amongst different clonal lines of a particular tumor type. This can be illustrated with melanoma clonal lines LOX, SH-1, PANUT-3, and MALME-3.
In accordance with the above methods for assaying the induction of SSAT levels in tumor cell lines treated in-vitro and xenografts treated in-vivo, the induction pattern also correlates fairly well amongst carcinomas of solid organs. This can be illustrated with malignant clonal lines A121, A549, and HT29.
As mentioned previously, cells from malignant solid tumor respond to polyamine analog therapy heterotypically. SSAT induction and antitumor response may vary not only among the solid tumor tissue type, but also with the clonal line of tumor of a particular solid tissue type. However, a correlation between the level of induction of SSAT and the potency of antitumor response has been observed in tumors of a particular solid tissue type. For example, seven human melanoma cell lines were assayed in-vitro for their response, as determined by cell growth and level of SSAT induction, to 10 μM BESPM at 48 hours post-treatment. As summarized in FIG. 5, growth among the cell lines decreases as SSAT induction increases.
To illustrate this embodiment, LOX and MALME-3 cell cultures were treated for 48 hours with 10 μm BESPM. The cells from each culture were harvested and assayed for SSAT activity. Media samples were prepared by treating the samples with 50% trichloroacetic acid to give a final concentration of 10% and then centrifuged at 15,000×g for 10 minutes. The supernatant was then filtered through a 0.22-μm filter, extracted with several volumes of ether, lyophilized, and resuspended in 10% trichloroacetic acid. N^1 -acetylspermidine levels of cells and media samples were then measured by use of high-pressure liquid chromatography. […] Similarly, N^1 -acetylspermidine levels from MALME-3 control cells, media from control cell cultures, and treated MALME-3 cells contained minimal levels of N^1 -acetylspermidine.

[2] = system: MALME-3 human melanoma xenografts; assay: antitumor response against MALME-3 human melanoma xenografts in mice; format: in vivo; conditions: for suppression of tumor growth after cessation of treatment: every 8 hours for 6 days, most effective dose; for % T/C (tumor growth suppression) / Regrowth Delay (time for median tumor volume to reach 200 mm^3): maximally tolerated dose
Procedure: b. Anticancer effects of polyamine analog therapy are determined by assessing the antiproliferative activity on the treated solid tumor by measuring one or more responses including tumor growth suppression, tumor regression, or repression of regrowth. Tumors were measured in three dimensions and tumor volume was calculated according to the formula:
[…] where 1 represents length; w--width; and h--height. Tumor sizes were monitored 2 times/week until the median volume (V=0.4(a^2 ×b) where a is the smaller of the two perpendicular tumor diameters). As an indication of drug toxicity, animal weights were also recorded at the time of tumor volume measurement. Statistical analyses were performed on mouse tumor size and weight parameters by using the Mann-Whitney test.
Tumor growth suppression was measured by plotting the mean tumor volume versus the number of days post-inoculation with polyamine analog (growth curve analyses). Suppression is determined by comparison with the growth of untreated tumors (%T/C). More specifically,: %T/C is (treated tumor volume minus pretreatment volume) divided by (control tumor volume minus pretreatment volume)×100. Typically this is measured either when the control tumor volume reaches 1000 mm^3, or at the last day of treatment.
Tumor regression is measured as a percentage representing the average percentage of decrease in tumor volume from the largest pretreatment volume value.
Repression of regrowth is represented as regrowth delay, determined as the number of days following cessation of treatment when median group tumor volume exceeds 200 mm^3 (an arbitrary indication of regrowth which was determined statistically).
For the in-vivo treatment, 10^7 cultured MALME-3 melanoma cells were injected subcutaneously into 20 gram female nude athymic mice. After four in-vivo passages, tumor was removed and 40-50 mm^3 fragments were selected for implantation into mice via subcutaneous trocar implantation. Mice developing palpable tumors of a similar size were divided into different treatment groups comprising mice per group. Following treatment of the mice with a dosage approaching the maximally tolerated dose of the respective bis-ethyl spermine analog, the tumor cells comprising the human xenograft were removed and assayed for SSAT induction. […] Also indicated in Table 1, the level of SSAT induction in-vivo by BESPM was less than 20 fold that of BEHSPM, and the level of SSAT induction in-vivo by BENSPM was about 6 fold greater than that of BESPM. Thus, a conclusion from the results depicted in Table 1 is the rank order in effectiveness of the his-ethyl spermine analogs to induce SSAT levels in-vitro correlated well with their effectiveness to induce SSAT levels in-vivo.
The in-vivo antitumor activities of BESPM, BEHSPM, and BENSPM, were compared against various human xenografts in nude athymic mice. Cultured human tumor cells were first passaged several times in female HSD nude athymic mice. Fragments of resultant tumor were implanted into mice via subcutaneous trocar implantation. Mice of different treatment groups were treated with one or more of the three bis-ethyl spermine analogs BESPM, BEHSPM, and BENSPM. Anti-proliferative activity was monitored by antitumor responses including tumor growth suppression, tumor regression, or repression of regrowth.
As illustrated in Table 1 with MALME-3 human melanoma cells, the rank order effectiveness of three polyamine analogs in inducing SSAT levels both in-vitro and in-vivo were BENSPM>BESPM>BEHSPM, with substantial differences in induction between them. The same three polyamine analogs were analyzed for their effectiveness in inducing a potent antitumor response in-vivo. Mice developing palpable tumors of a similar size were divided into different treatment groups comprising 5 mice per treatment group, and 10 control mice per treatment group. […]

[3] = system: ornithine decarboxylase (ODC); conditions: in-vitro; cited from earlier work
[4] = system: S-adenosylmethionine decarboxylase (SAMDC); conditions: in-vitro; cited from earlier work
[5] = MALME-3 xenograft, 40 mg/kg every 8 hours for 5 days

## CCNCCCCNCCCCNCCCCNCC [BEHSPM, N^1,N^14 -bis(ethyl)homospermine]
[1]; MALME-3 cells, 10 μM analog
  SSAT induction in-vitro: 1108 pmol/min/10^6 cells
[2]; MALME-3 xenograft
  suppression of tumor growth after cessation of treatment: 18 days
  % T/C (tumor growth suppression): 43%
  Regrowth Delay (time for median tumor volume to reach 200 mm^3): 14 days
[2]; MALME-3 xenografts
  antitumor activity: less effective than BESPM
[3]
  ODC suppression: similarly suppress ornithine and S-adenosyl-methionine decarboxylase levels
[4]
  SAMDC suppression: similarly suppress ornithine and S-adenosyl-methionine decarboxylase levels

## CCNCCCNCCCNCCCNCC [BENSPM, N^1,N^11 -bis(ethyl)norspermine]
[1]; A121 ovarian, 10 μm BENSPM
  SSAT induction in-vitro: 2,700 pmol/min/10^6 cells
[1]; A549 lung, 10 μm BENSPM
  SSAT induction in-vitro: 22,755 pmol/min/10^6 cells
[1]; HT29 colon, 10 μm BENSPM
  SSAT induction in-vitro: 3,640 pmol/min/10^6 cells
[1]; MALME-3 cells, 10 μM
  SSAT induction in-vitro relative to BESPM: 5 to 6 fold
[2]; MALME-3M, BENSPM at 80 mg/kg
  % T/C at 1 g: < 0%
  Tumor Regression: Present
[2]; MALME-3M, BENSPM at 80 mg/kg, dt 13 days
  Regrowth Delay: > 4.8 × dt
[2]; MALME-3M, BENSPM at 80 mg/kg, for duration of experiment
  No Regrowth: 2/5
[2]; [5]
  lack of regrowth (FIG. 6): two mice examined of the remaining five mice treated
  regrowth delay (FIG. 6): significant regrowth delay
  tumor regression (FIG. 6): showed tumor regression
[2]; MALME-3 xenograft
  suppression of tumor growth after cessation of treatment: 40 days
  % T/C (tumor growth suppression): 10%
  Regrowth Delay (time for median tumor volume to reach 200 mm^3): 37 days
[2]; MALME-3 xenografts
  antitumor activity: most effective of the three
[2]; MALME-3 xenografts, retreatment 2 weeks later
  apparent curing of xenografts on retreatment: about 20%
[3]
  ODC suppression: similarly suppress ornithine and S-adenosyl-methionine decarboxylase levels
[4]
  SAMDC suppression: similarly suppress ornithine and S-adenosyl-methionine decarboxylase levels

## CCNCCCNCCCCNCCCNCC [BESPM, N^1,N^12-bis(ethyl)spermine]
[1]; LOX and SH-1, 10 μM BESPM
  SSAT induction (FIG. 5, words): lowest induction of SSAT levels
[1]; LOX, 10 μM BESPM
  SSAT: 120 pmol/mg/min
[1]; LOX, 10 μm BESPM
  SSAT induction in-vitro: 171 pmol/min/10^6 cells
[1]; MALME-3, 10 μM BESPM
  SSAT: 12,405 pmol/mg/min
[1]; MALME-3, 10 μm BESPM (Table 2)
  SSAT induction in-vitro: 19,520 pmol/min/10^6 cells
[1]; MALME-3 and Ebey, 10 μM BESPM
  SSAT induction (FIG. 5, words): highest SSAT activity
[1]; MALME-3 cells, 10 μM
  SSAT induction in-vitro relative to BEHSPM: about 10 fold
[1]; PANUT-3, 10 μm BESPM
  SSAT induction in-vitro: 10,343 pmol/min/10^6 cells
[1]; SH-1, 10 μm BESPM
  SSAT induction in-vitro: 1100 pmol/min/10^6 cells
[2]; MALME-3 xenograft
  suppression of tumor growth after cessation of treatment: 30 days
  % T/C (tumor growth suppression): 34%
  Regrowth Delay (time for median tumor volume to reach 200 mm^3): 27 days
[2]; MALME-3 xenografts
  antitumor activity: significant antitumor activity
[3]
  ODC suppression: rapidly suppress ODC and SAMDC; also recorded: similarly suppress ornithine and S-adenosyl-methionine decarboxylase levels
[4]
  SAMDC suppression: rapidly suppress ODC and SAMDC; also recorded: similarly suppress ornithine and S-adenosyl-methionine decarboxylase levels
